Reference: patent publication US9920339B2, “Methods, reagents and cells for biosynthesizing compounds” (INVISTA North America S.á r.l., priority 2014, dated 2018)

Assays:
[1] = tested on: transaminase of SEQ ID NO 10; assay: ω-transaminase enzyme activity assay in the forward direction, glutarate semialdehyde plus L-alanine to pyruvate; format: biochemical, Pseudomonas syringae; settings: 10 mM glutarate semialdehyde, 10 mM L-alanine, 100 μM pyridoxyl 5′ phosphate, pH 7.5, 25° C., 4 h, pyruvate by RP-HPLC
Protocol: (§1) A nucleotide sequence encoding an N-terminal His-tag was added to the genes from Chromobacterium violaceum and Rhodobacter sphaeroides encoding the ω-transaminases of SEQ ID NOs: 8 and 10 respectively (see FIG. 10) such that N-terminal HIS tagged ω-transaminases could be produced. Each of the resulting modified genes was cloned into a pET21a expression vector under control of the T7 promoter and each expression vector was transformed into a BL21[DE3] E. coli host. The resulting recombinant E. coli strains were cultivated at 37° C. in a 250 mL shake flask culture containing 50 mL LB media and antibiotic selection pressure, with shaking at 230 rpm. Each culture was induced overnight at 16° C. using 1 mM IPTG.
(§2) The pellet from each induced shake flask culture was harvested via centrifugation. Each pellet was resuspended and lysed via sonication. The cell debris was separated from the supernatant via centrifugation and the cell free extract was used immediately in enzyme activity assays.
Enzyme activity in the forward direction (i.e., glutarate semialdehyde to 5-aminopentanoate) was confirmed for the transaminase of SEQ ID NO 10. Enzyme activity assays were performed in a buffer composed of a final concentration of 50 mM HEPES buffer (pH=7.5), 10 mM glutarate semialdehyde, 10 mM L-alanine and 100 μM pyridoxyl 5′ phosphate. […] The formation of pyruvate was quantified via RP-HPLC.

[2] = tested on: Chromobacterium violaceum ω-transaminase (SEQ ID NO: 8); assay: ω-transaminase enzyme activity assay, amine substrate plus pyruvate to L-alanine (cell free extract); format: biochemical; settings: forward (amine-forming) direction, inferred from the reverse assay
[3] = tested on: Segniliparus rotundus carboxylate reductase (SEQ ID NO: 7), enhanced by the gene product of sfp; assay: carboxylate reductase enzyme activity assay, NADPH consumption at 340 nm; format: biochemical; settings: SEQ ID NO 7 with sfp; 2 mM substrate, 10 mM MgCl2, 1 mM ATP, 1 mM NADPH, pH 7.5, room temperature, 20 min; absorbance at 340 nm
Protocol: (§3) A nucleotide sequence encoding a His-tag was added to the genes from Mycobacterium marinum, Mycobacterium smegmatis, Segniliparus rugosus, Mycobacterium massiliense, and Segniliparus rotundus that encode the carboxylate reductases of SEQ ID NOs: 2-4, 6 and 7, respectively (GenBank Accession Nos. ACC40567.1, ABK71854.1, EFV11917.1, EIV11143.1, and ADG98140.1, respectively) (see FIG. 10) such that N-terminal HIS tagged carboxylate reductases could be produced. Each of the modified genes was cloned into a pET Duet expression vector alongside a sfp gene encoding a His-tagged phosphopantetheine transferase from Bacillus subtilis, both under control of the T7 promoter. Each expression vector was transformed into a BL21[DE3] E. coli host along with the expression vectors from Example 3. Each resulting recombinant E. coli strain was cultivated at 37° C. in a 250 mL shake flask culture containing 50 mL LB media and antibiotic selection pressure, with shaking at 230 rpm. Each culture was induced overnight at 37° C. using an auto-induction media.
The pellet from each induced shake flask culture was harvested via centrifugation. Each pellet was resuspended and lysed via sonication. The cell debris was separated from the supernatant via centrifugation. […]
Enzyme activity (i.e., 5-hydroxypentanoate to 5-hydroxypentanal) assays were performed in triplicate in a buffer composed of a final concentration of 50 mM HEPES buffer (pH=7.5), 2 mM 5-hydroxypentanal, 10 mM MgCl2, 1 mM ATP, and 1 mM NADPH. […] The consumption of NADPH was monitored by absorbance at 340 nm.
The N-terminal His-tagged carboxylate reductase of SEQ ID NO 7 (see Example 2 and FIG. 10) was assayed using glutarate semialdehyde as substrate. […] The consumption of NADPH was monitored by absorbance at 340 nm.
The N-terminal His-tagged carboxylate reductase of SEQ ID NO 2-4 and 7 (see Example 2 and FIG. 10) was assayed using glutarate methyl ester as substrate. […] The consumption of NADPH was monitored by absorbance at 340 nm.

[4] = tested on: ω-transaminase from Chromobacterium violaceum (SEQ ID NO: 8); settings: Kaulmann et al., 2007; cited from earlier work
[5] = tested on: 5-aminovalerate transaminase from Clostridium viride; settings: Barker et al., 1987; cited from earlier work
[6] = tested on: 4-aminobubyrate:2-oxoglutarate transaminase from Streptomyces griseus; settings: Yonaha et al., 1985; cited from earlier work
[7] = tested on: Pseudomonas syringae ω-transaminase (SEQ ID NO: 10); assay: ω-transaminase enzyme activity assay, amine substrate plus pyruvate to L-alanine (cell free extract); format: biochemical; settings: reverse direction, 10 mM substrate, 10 mM pyruvate, 100 μM pyridoxyl 5′ phosphate, pH 7.5, 25° C., 4 h, L-alanine by RP-HPLC
Protocol: (§4) A nucleotide sequence encoding an N-terminal His-tag was added to the Chromobacterium violaceum, Pseudomonas aeruginosa, Pseudomonas syringae, Rhodobacter sphaeroide, Escherichia coli and Vibrio fluvialis genes encoding the ω-transaminases of SEQ ID NOs: 8-13, respectively (see FIG. 10) such that N-terminal HIS tagged ω-transaminases could be produced. The modified genes were cloned into a pET21a expression vector under the T7 promoter. Each expression vector was transformed into a BL21[DE3] E. coli host. Each resulting recombinant E. coli strain were cultivated at 37° C. in a 250 mL shake flask culture containing 50 mL LB media and antibiotic selection pressure, with shaking at 230 rpm. Each culture was induced overnight at 16° C. using 1 mM IPTG.
as §2
(§5) Enzyme activity assays in the reverse direction (i.e., 5-aminopentanol to 5-oxopentanol) were performed in a buffer composed of a final concentration of 50 mM HEPES buffer (pH=7.5), 10 mM 5-aminopentanol, 10 mM pyruvate, and 100 μM pyridoxyl 5′ phosphate. Each enzyme activity assay reaction was initiated by adding cell free extract of the ω-transaminase gene product or the empty vector control to the assay buffer containing the 5-aminopentanol and then incubated at 25° C. for 4 h, with shaking at 250 rpm. The formation of L-alanine was quantified via RP-HPLC.
as §4, with “and” for “Rhodobacter sphaeroide,”, “coli” for “coli and Vibrio fluvialis”, “8-10 and 12,” for “8-13,”
as §5, with “cadaverine” for “5-aminopentanol”, “5-aminopentanal)” for “5-oxopentanol)”, “cadaverine,” for “5-aminopentanol,”
(§6) The activity of the N-terminal His-tagged ω-transaminases of SEQ ID NOs: 8, 10-13 (see Example 3, and FIG. 10) for converting N5-acetyl-1,5-diaminopentane to N5-acetyl-5-aminopentanal was assayed using a buffer composed of a final concentration of 50 mM HEPES buffer (pH=7.5), 10 mM N5-acetyl-1,5-diaminopentane, 10 mM pyruvate and 100 μM pyridoxyl 5′ phosphate. Each enzyme activity assay reaction was initiated by adding a cell free extract of the ω-transaminase or the empty vector control to the assay buffer containing the N5-acetyl-1,5-diaminopentane then incubated at 25° C. for 4 h, with shaking at 250 rpm. The formation of L-alanine was quantified via RP-HPLC.
(§7) The activity of the N-terminal His-tagged ω-transaminases of SEQ ID NOs: 8-13 (see Example 3, and FIG. 10) for converting 1-aminopentane to pentanal was assayed using a buffer composed of a final concentration of 50 mM HEPES buffer (pH=7.5), 10 mM 1-aminopentane, 10 mM pyruvate and 100 μM pyridoxyl 5′ phosphate. […]

[8] = target: T1, Escherichia coli ω-transaminase (SEQ ID NO: 12) (Escherichia coli, UniProt P42588); assay: as above; format: biochemical; settings: reverse direction, 10 mM substrate, 10 mM pyruvate, 100 μM pyridoxyl 5′ phosphate, pH 7.5, 25° C., 4 h, L-alanine by RP-HPLC
T1 construct: His-tag (N); made in house; host or cells: E. coli BL21[DE3], pET21a
Protocol: as §4, §2, §5
as §4, with “and” for “Rhodobacter sphaeroide,”, “coli” for “coli and Vibrio fluvialis”, “8-10 and 12,” for “8-13,”
as §5, with “cadaverine” for “5-aminopentanol”, “5-aminopentanal)” for “5-oxopentanol)”, “cadaverine,” for “5-aminopentanol,”
as §6, §7

gene product of ygjG = gene product of ygjG (Escherichia coli, UniProt P42588); settings: Samsonova et al., 2003; cited from earlier work
[9] = tested on: Chromobacterium violaceum ω-transaminase (SEQ ID NO: 8); assay: ω-transaminase enzyme activity assay, amine substrate plus pyruvate to L-alanine (cell free extract); format: biochemical; settings: reverse direction, 10 mM substrate, 10 mM pyruvate, 100 μM pyridoxyl 5′ phosphate, pH 7.5, 25° C., 4 h, L-alanine by RP-HPLC
Protocol: as §1, §2
as §5, with “5-aminopentanoate” for “5-aminopentanol”, “glutarate semialdehyde)” for “5-oxopentanol)”, “5-aminopentanoate,” for “5-aminopentanol,”, “pyruvate” for “pyruvate,”, “and” for “and then”, “L-alanine from pyruvate” for “L-alanine”
as §4, §5
as §4, with “and” for “Rhodobacter sphaeroide,”, “coli” for “coli and Vibrio fluvialis”, “8-10 and 12,” for “8-13,”
Enzyme activity assays in the reverse direction (i.e., cadaverine to 5-aminopentanal) were performed in a buffer composed of a final concentration of 50 mM HEPES buffer (pH=7.5), 10 mM cadaverine, 10 mM pyruvate, and 100 μM pyridoxyl 5′ phosphate. […]

[10] = tested on: Pseudomonas aeruginosa ω-transaminase (SEQ ID NO: 9); assay: as above; format: biochemical; settings: reverse direction, 10 mM substrate, 10 mM pyruvate, 100 μM pyridoxyl 5′ phosphate, pH 7.5, 25° C., 4 h, L-alanine by RP-HPLC
Protocol: as §4, §2, §5
as §4, with “and” for “Rhodobacter sphaeroide,”, “coli” for “coli and Vibrio fluvialis”, “8-10 and 12,” for “8-13,”
as §5, with “cadaverine” for “5-aminopentanol”, “5-aminopentanal)” for “5-oxopentanol)”, “cadaverine,” for “5-aminopentanol,”
as §6, with “8-13” for “8, 10-13”, “1-aminopentane” for “N5-acetyl-1,5-diaminopentane”, “pentanal” for “N5-acetyl-5-aminopentanal”, “1-aminopentane,” for “N5-acetyl-1,5-diaminopentane,”
as §7, with “1-aminoheptane” for “1-aminopentane”, “heptanal” for “pentanal”, “1-aminoheptane,” for “1-aminopentane,”

[11] = tested on: diamine transaminase from E. coli strain B; settings: Kim, 1964; cited from earlier work
[12] = tested on: Segniliparus rugosus carboxylate reductase (SEQ ID NO: 4), enhanced by the gene product of sfp; assay: carboxylate reductase enzyme activity assay, NADPH consumption at 340 nm; format: biochemical; settings: SEQ ID NO 4 with sfp; 2 mM substrate, 10 mM MgCl2, 1 mM ATP, 1 mM NADPH, pH 7.5, room temperature, 20 min; absorbance at 340 nm
Protocol: as §3
(§8) The pellet from each induced shake flask culture was harvested via centrifugation. Each pellet was resuspended and lysed via sonication. The cell debris was separated from the supernatant via centrifugation. The carboxylate reductases and phosphopantetheine transferase were purified from the supernatant using Ni-affinity chromatography, diluted 10-fold into 50 mM HEPES buffer (pH=7.5) and concentrated via ultrafiltration.
(§9) Enzyme activity (i.e., 5-hydroxypentanoate to 5-hydroxypentanal) assays were performed in triplicate in a buffer composed of a final concentration of 50 mM HEPES buffer (pH=7.5), 2 mM 5-hydroxypentanal, 10 mM MgCl2, 1 mM ATP, and 1 mM NADPH. Each enzyme activity assay reaction was initiated by adding purified carboxylate reductase and phosphopantetheine transferase or the empty vector control to the assay buffer containing the 5-hydroxypentanoate and then incubated at room temperature for 20 min. The consumption of NADPH was monitored by absorbance at 340 nm.
(§10) The N-terminal His-tagged carboxylate reductase of SEQ ID NO 2-4 and 7 (see Example 2 and FIG. 10) was assayed using glutarate methyl ester as substrate. The enzyme activity assay was performed in triplicate in a buffer composed of a final concentration of 50 mM HEPES buffer (pH=7.5), 2 mM glutarate methyl ester, 10 mM MgCl2, 1 mM ATP and 1 mM NADPH. The enzyme activity assay reaction was initiated by adding purified carboxylate reductase and phosphopantetheine transferase or the empty vector control to the assay buffer containing the glutarate semialdehyde and then incubated at room temperature for 20 min. The consumption of NADPH was monitored by absorbance at 340 nm.

[13] = target: T2, Mycobacterium marinum carboxylate reductase (SEQ ID NO: 2), enhanced by the gene product of sfp (Mycobacterium marinum, UniProt B2HN69); assay: as above; format: biochemical; settings: SEQ ID NO 2 with sfp; 2 mM substrate, 10 mM MgCl2, 1 mM ATP, 1 mM NADPH, pH 7.5, room temperature, 20 min; absorbance at 340 nm
T2 construct: His-tag (N); made in house; host or cells: E. coli BL21[DE3], pET Duet
Protocol: as §3, §8, §9, §10

[14] = tested on: Mycobacterium smegmatis carboxylate reductase (SEQ ID NO: 3), enhanced by the gene product of sfp; assay: as above; format: biochemical; settings: SEQ ID NO 3 with sfp; 2 mM substrate, 10 mM MgCl2, 1 mM ATP, 1 mM NADPH, pH 7.5, room temperature, 20 min; absorbance at 340 nm
Protocol: as §3, §8, §9, §10

T2 sequence (B2HN69 whole entry): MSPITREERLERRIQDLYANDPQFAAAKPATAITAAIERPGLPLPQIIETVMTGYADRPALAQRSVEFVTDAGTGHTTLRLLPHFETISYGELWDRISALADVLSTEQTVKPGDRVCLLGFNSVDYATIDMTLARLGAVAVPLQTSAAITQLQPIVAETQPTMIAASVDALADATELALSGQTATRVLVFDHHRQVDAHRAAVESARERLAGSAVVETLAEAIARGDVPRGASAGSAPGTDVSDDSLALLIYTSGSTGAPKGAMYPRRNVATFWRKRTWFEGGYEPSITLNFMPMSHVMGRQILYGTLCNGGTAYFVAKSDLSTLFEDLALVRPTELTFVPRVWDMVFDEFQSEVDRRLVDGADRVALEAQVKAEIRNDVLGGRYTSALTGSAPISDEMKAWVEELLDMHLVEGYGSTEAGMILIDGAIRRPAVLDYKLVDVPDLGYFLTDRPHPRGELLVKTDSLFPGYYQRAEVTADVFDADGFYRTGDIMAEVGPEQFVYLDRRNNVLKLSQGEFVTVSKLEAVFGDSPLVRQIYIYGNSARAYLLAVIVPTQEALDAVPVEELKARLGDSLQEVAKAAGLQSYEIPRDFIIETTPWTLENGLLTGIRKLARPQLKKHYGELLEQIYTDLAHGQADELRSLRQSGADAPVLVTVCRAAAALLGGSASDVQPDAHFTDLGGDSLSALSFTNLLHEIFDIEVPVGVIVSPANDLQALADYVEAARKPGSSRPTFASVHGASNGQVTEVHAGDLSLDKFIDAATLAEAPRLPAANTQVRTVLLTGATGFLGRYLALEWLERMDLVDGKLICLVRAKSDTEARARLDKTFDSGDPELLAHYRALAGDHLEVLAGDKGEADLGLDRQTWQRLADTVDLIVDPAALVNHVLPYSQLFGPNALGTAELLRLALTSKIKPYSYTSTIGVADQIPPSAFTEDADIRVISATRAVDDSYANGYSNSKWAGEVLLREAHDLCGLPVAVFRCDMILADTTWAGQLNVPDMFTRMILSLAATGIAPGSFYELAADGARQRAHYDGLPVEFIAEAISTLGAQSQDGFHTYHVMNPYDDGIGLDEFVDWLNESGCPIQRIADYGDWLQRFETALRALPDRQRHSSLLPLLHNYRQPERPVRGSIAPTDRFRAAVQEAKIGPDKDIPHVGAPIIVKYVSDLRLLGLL
gene product of ygjG, sequence (P42588 whole entry): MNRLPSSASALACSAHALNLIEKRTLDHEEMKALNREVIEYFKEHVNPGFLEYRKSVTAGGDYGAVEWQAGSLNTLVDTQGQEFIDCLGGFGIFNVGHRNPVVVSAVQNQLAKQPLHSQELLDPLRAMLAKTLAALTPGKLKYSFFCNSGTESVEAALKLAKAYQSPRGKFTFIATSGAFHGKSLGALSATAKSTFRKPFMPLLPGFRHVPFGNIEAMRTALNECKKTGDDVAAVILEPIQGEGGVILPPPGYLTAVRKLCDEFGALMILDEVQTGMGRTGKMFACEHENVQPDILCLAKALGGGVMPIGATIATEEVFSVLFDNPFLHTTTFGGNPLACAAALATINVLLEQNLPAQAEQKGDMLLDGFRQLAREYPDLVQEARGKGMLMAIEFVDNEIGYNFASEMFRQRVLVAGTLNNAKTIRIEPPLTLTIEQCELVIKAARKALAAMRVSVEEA
T1 sequence (P42588 whole entry): as above

O=CCCCC(=O)O [glutarate semialdehyde]
accepted as substrate as confirmed against the empty vector control [1]: accepted | accepted as substrate, concluded from the reversibility of the ω-transaminase activity [2]: accepted | accepted as substrate as confirmed against the empty vector control [3]: accepted

NCCCCCC(=O)O [6-aminohexanoate]
accepted as amino donor [4]: demonstrated analogous activity | activity for the conversion to adipate semialdehyde [5]: demonstrated analogous activity | activity for the conversion to adipate semialdehyde [6]: demonstrated analogous activity

NCCCCCN [cadaverine]
accepted as substrate as confirmed against the empty vector control [7]: accepted | accepted as substrate as confirmed against the empty vector control [8]: accepted | accepted as diamine substrate (gene product of ygjG): accepts | accepted as substrate as confirmed against the empty vector control [9]: accepted | accepted as substrate as confirmed against the empty vector control [10]: accepted | activity for the substrate [11]: demonstrated activity

COC(=O)CCCC(=O)O [glutarate methyl ester]
accepted as substrate as confirmed against the empty vector control [3]: accepted | accepted as substrate as confirmed against the empty vector control [12]: accepted | accepted as substrate as confirmed against the empty vector control [13]: accepted | accepted as substrate as confirmed against the empty vector control [14]: accepted
